The text below walks through data of the METLIN SMRT retention time set (Domingo-Almenara et al. 2019).

A short description of the data set: gradient 5% acetonitrile 3 min, to 50% in 2 min, to 85% in 15 min, held 3 min, 100 µL/min. Conditions: column: Zorbax Extend-C18 2.1 x 50 mm; eluents: water / acetonitrile, 0.1% formic acid. The method in brief:
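A Zorbax Extend-C18 column (2.1 × 50 mm, 1.8 μm) run at 100 μL/min with water and acetonitrile, both containing 0.1% formic acid, separated mixtures of ~100 pure standards. The HPLC was coupled to a quadrupole time-of-flight mass spectrometer operated in positive and negative ionization mode, with dead and dwell volumes of 40 μL and 900 μL. Each retention time was taken from a computationally picked adduct peak that was then manually inspected.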
In turn, `O=C1COc2ccc(-c3csc(NC(=O)c4ccc(Br)cc4)n3)cc2N1` registered an RP-LC retention time of 946 s.

With `CCc1ccc(NC(=O)c2cc(C(C)C)n3nccc3n2)cc1`, the RP-LC retention time is 1260 s.

Compound `CCCc1nc(-c2ccnc(N3CCOCC3)c2)no1` gave an RP-LC retention time of 749 s.

`O=C(NCc1ccccc1Br)C1CCCN(c2cnc3nccnc3c2)C1` (stereo not drawn) gave an RP-LC retention time of 728 s.

In the case of `CCN(C(=O)Nc1ccccc1[N+](=O)[O-])c1nc(-c2ccc(C)cc2)cs1`, the RP-LC retention time is 1410 s.

Regarding `O=C(NCc1ccc(F)cc1Cl)C1=C2CCCN2c2ccc(F)cc2S1(=O)=O`, the RP-LC retention time worked out at 933 s.

As for `Cc1noc(C)c1CNC(=O)Cc1cccc(Cl)c1`, the RP-LC retention time was found to be 742 s.

Compound `COCCc1nnc(NC(=O)COc2ccc(Cl)cc2)o1` came in with an RP-LC retention time of 655 s.

As to `COc1ccc(NC(=O)N2CCCC2c2nc(-c3cccc(OC)c3)no2)cc1` (stereo not drawn), the RP-LC retention time came to 875 s.

In turn, `Cc1ccc(-c2csc(Nc3ccccn3)n2)cc1` had an RP-LC retention time of 918 s.

The compound `Cn1cccc1CN(C(=O)CC(c1ccccc1)c1ccccc1)C1CC1` yielded an RP-LC retention time of 1080 s.

`Cc1nc2cc(N3CCCC(C(=O)N4CCN(c5ccccn5)CC4)C3)cnc2nc1C` (stereo not drawn): the RP-LC retention time was 581 s.

On to `COC(=O)c1cnc2nc(C)ccc2c1Nc1ccc2c(c1)OCCO2`, for which the RP-LC retention time came to 652 s.

As to `O=C(NCCn1ncccc1=O)c1ccc(OCc2nc(-c3ccco3)cs2)cc1`, the RP-LC retention time worked out at 690 s.

In the case of `O=c1n(Cc2cccc(F)c2)nc2c(S(=O)(=O)N3CCCC3)cccn12`, the RP-LC retention time turned out to be 1050 s.

`CC(=O)Nc1ccc(SCCCC(=O)Nc2ncc([N+](=O)[O-])s2)nn1` had an RP-LC retention time of 670 s.

The compound `CCc1ccc(OCC(=O)N(Cc2ccc(OC)cc2)C2CCS(=O)(=O)C2)cc1` (stereo not drawn) showed an RP-LC retention time of 989 s.

Regarding `COc1ccc(-c2cc3c(=O)n(Cc4nc(-c5cccc(OC)c5OC)oc4C)ccn3n2)cc1`, the RP-LC retention time was 990 s.

In the case of `CC(=O)N1CCC(C(=O)Nc2cc(-c3nnc(C)o3)sc2C)CC1`, the RP-LC retention time is 648 s.

On to `Cc1noc(CNC(=O)C2CCN(C(=O)c3ccc4ncsc4c3)CC2)n1`, for which the RP-LC retention time turned out to be 574 s.

For the compound `CCCN1C(=O)COc2ccc(-c3noc(CCc4c[nH]c5ccccc45)n3)cc21`, the RP-LC retention time worked out at 1110 s.

`CC(C)C(=O)Nc1c(-c2ccc(F)cc2)nc2ccccn12` yielded an RP-LC retention time of 602 s.

Take `O=S(=O)(Nc1ccc(F)cc1)c1cccnc1N1CCOCC1`: the RP-LC retention time is 801 s.

Compound `COc1ccc(S(=O)(=O)NCc2cccnc2-c2cccc(C)c2)cc1Cl` displayed an RP-LC retention time of 756 s.

With `COc1ccc(OC)c2sc(NC(=O)CS(=O)(=O)c3ccc(Cl)cc3)nc12`, the RP-LC retention time was 854 s.

In the case of `CCOc1ccc(N2CC(C#N)=C3c4cc(OC)c(OC)cc4CCN3C2)cc1`, the RP-LC retention time came to 848 s.

On to `CCNC(=O)c1cc2c(n(-c3ccc(C(C)C)cc3)c1=O)CCCC2=O`, for which the RP-LC retention time stood at 905 s.

On to `Cc1oc2ncn(CC(=O)N3CCC(C(N)=O)CC3)c(=O)c2c1C`, for which the RP-LC retention time is 613 s.

As to `CCN(CC)S(=O)(=O)c1ccc(F)c(-c2nnc(-c3ccccc3Br)o2)c1`, the RP-LC retention time stood at 1090 s.

With `CCn1cnc(S(=O)(=O)N2CCC(C(=O)Nc3ccc4c(c3)OCCO4)CC2)c1`, the RP-LC retention time is 681 s.

As to `CCc1csc(-c2ccc(N3CCN(C(=O)c4ccc(F)cc4)CC3)nc2)n1`, the RP-LC retention time was determined as 921 s.

In turn, `CCCN1CCCCc2cc(C(=O)N(CC)C(C)C)sc21` gave an RP-LC retention time of 1240 s.

With `Cc1nnc2cc(N3CCN(S(=O)(=O)c4ccc(C#N)cc4)CC3)cnn12`, the RP-LC retention time turned out to be 642 s.
